Measurements reported in patent publication US7091026B2, “Artificial endonuclease” (University of Iowa Research Foundation, priority 2001, dated 2006).
Where no end group is shown, it is not given here.

Key:
[1] = system: supercoiled pBR322 plasmid DNA; test: DNA gel shift assay (agarose gel electrophoresis); format: binding; details: 5–25 μM ligand, in words
Description: DNA Gel Shift Assays. The affinity of EuP3, EuP2, and each free peptide for supercoiled plasmid DNA was examined by agarose gel electrophoresis. Plasmid (pBR322, New England Biolabs, Inc.) was incubated for 15 minutes at room temperature with increasing concentrations of each ligand (5–25 μM), prior to the addition of loading dye. Each lane contained 1 μg plasmid (50 μM base pairs) in 10 mM Tris buffer at pH 8.0.

[2] = target: P4a (34-residue synthetic chimeric peptide: alpha2 and alpha3 of engrailed, minus the last turn of alpha2 and the beta-turn, with calmodulin loop I); test: measured dissociation constant, method not stated; self-association of the Eu-bound peptide

| Molecule | gel shift / affinity for supercoiled plasmid DNA [1] | gel shift / affinity for supercoiled plasmid DNA ([1]; listed as free metal) | Kdim (dimerization constant) [2] |
| --- | --- | --- | --- |
| [Cl][Eu]([Cl])[Cl] [EuCl3] | not | not seen |  |
| TERRRFDKDGNGYISAAELRHVKIWFQNKRAKIK (also: also used as Eu(III)-bound form (EuP4a)) |  |  | > 300 µM |
